Where two headings read alike, the source gives them in different places.
Tests used:
[1] = Plasma free fraction (fu) and unbound Cmax (Cmax,u); assay type: in vitro ADME, human; details: unbound plasma Cmax
Procedure: The prediction of DILI severity was evaluated further using the 3D combined HCI assays using plasma-free fraction. The majority of fu values were obtained from literature, when unavailable in-house prediction was utilised. Unbound plasma Cmax concentrations (Cmax,u) were derived by multiplying total plasma Cmax with the corresponding free fraction (fu) for each compound.

[2] = tested on: hLiMTs
[3] = tested on: HepaRG spheroids
[4] = cited from earlier work
[5] = tested on: HepG2 cells; details: cited from earlier work
[6] = tested on: HepG2 cells; details: cited from earlier work; remark: listed apart in the source
[7] = tested on: human hepatocytes; details: cited from earlier work
[8] = tested on: PHH; details: cited from earlier work
[9] = tested on: hLiMTs; details: cited from earlier work
[10] = tested on: PHH spheroids; details: cited from earlier work
[11] = read-out: Human plasma Cmax; total plasma Cmax.tot, median of 9 literature references; cited from earlier work
[12] = plasma free fraction; cited from earlier work
[13] = cited from earlier work; remark: listed apart in the source
[14] = tested on: THLE-Null and THLE-3A4 cells; details: In vitro Assay; ref Gustafsson 2014; cited from earlier work
[15] = tested on: rBsep; details: In vitro Assay; ref Dawson 2012; cited from earlier work
[16] = tested on: hLiMTs; experiment: Combined HCI (HCS) and cellular ATP 3D assay in hLiMTs; details: for hLiMTs <25x Avg Cmax ATP / hLiMTs <100x Avg Cmaxu ATP: ATP endpoint; for hLiMTs <25x Avg Cmax ATP / hLiMTs <25x Avg Cmax HCS / hLiMTs <25x Avg Cmax All: cut-off <25x Avg Cmax; for hLiMTs <25x Avg Cmax HCS / hLiMTs <100x Avg Cmaxu HCS: HCS endpoints; for hLiMTs <25x Avg Cmax All: all endpoints (ATP and HCS); for hLiMTs Cmax max All / hLiMTs Cmax min All / hLiMTs <10 uM All / hLiMTs <100x Avg Cmaxu All: all endpoints; for hLiMTs Cmax max All: Cmax max used; for hLiMTs Cmax min All: Cmax min used; for hLiMTs <10 uM All: cut-off <10 uM; for hLiMTs <100x Avg Cmaxu ATP / hLiMTs <100x Avg Cmaxu HCS / hLiMTs <100x Avg Cmaxu All: cut-off <100x Avg Cmaxu
[17] = tested on: HepaRG spheroids; experiment: Combined HCI (HCS) and cellular ATP 3D assay in HepaRG spheroids; details: HepaRG; for HepaRG <25x Avg Cmax ATP / HepaRG <100x Avg Cmaxu ATP: ATP endpoint; for HepaRG <25x Avg Cmax ATP / HepaRG <25x Avg Cmax HCS / HepaRG <25x Avg Cmax All: cut-off <25x Avg Cmax; for HepaRG <25x Avg Cmax HCS / HepaRG <100x Avg Cmaxu HCS: HCS endpoints; for HepaRG <25x Avg Cmax All: all endpoints (ATP and HCS); for HepaRG Cmax max All / HepaRG Cmax min All / HepaRG <10 uM All / HepaRG <100x Avg Cmaxu All: all endpoints; for HepaRG Cmax max All: Cmax max used; for HepaRG Cmax min All: Cmax min used; for HepaRG <10 uM All: cut-off <10 uM; for HepaRG <100x Avg Cmaxu ATP / HepaRG <100x Avg Cmaxu HCS / HepaRG <100x Avg Cmaxu All: cut-off <100x Avg Cmaxu; for minimal effective concentration: Homo sapiens
[18] = tested on: HepG2 C3A spheroid, BSEP, Glu/Gal in HepG2 cells, bioactivation; details: cited from earlier work
[19] = tested on: THLE or HepG2 cells, isolated mitochondria, BSEP; details: cited from earlier work
[20] = In vitro Assay, ref Persson 2013
[21] = 2D PHH, ATP, IC50 threshold 100 µM, ref Proctor et al. 2017
[22] = In vitro Assay, ref Proctor 2017
[23] = hLiMTs, ATP, IC50 threshold 100 µM, ref Proctor et al. 2017
[24] = Chen et al. 2016 or literature alignment, ref Chen et al. 2016

## CCOC(=O)c1ncn2c1CN(C)C(=O)c1cc(F)ccc1-2 [flumazenil, reference compound]
[1]
  Human plasma Cmax,u: 650 nM
[2]
  DILI prediction hLiMTs (HCS-MEC): -VE
[3]
  DILI prediction HepaRG spheroids (HCS-MEC): -VE
[4]; LTKB DILIrank category, ref Chen et al. 2016
  DILI severity category (Chen et al. [2016]): No
[4]; human DILI classification, LTKB DILIrank, ref Chen et al. 2016
  DILI severity category (Chen 2016): No
[4]; human DILI severity, ref Chen et al.
  DILI severity category: No
[4]; ref Chen 2016
  DILI +VE (5-8), DILI -VE (-4): -VE
  DILI severity category: vNo-DILI-Concern
[5]; In vitro Assay, ref O'Brien 2006
  Structural based (HCI): -VE
[5]; Structural based (HCI), HepG2, ref O'Brien et al. 2006
  DILI in vitro assay prediction, O'Brien (2006): -VE
[6]; [20]
  Cluser analysis: -VE
  Structural based (HCI): -VE
[6]; Structural based (HCI), HepG2, ref Persson et al. 2013
  DILI in vitro assay prediction, Persson (2013): -VE
[7]; In vitro Assay, ref Xu 2008
  Structural based (HCI): -VE
[7]; Structural based (HCI), human hepatocytes, ref Xu et al. 2008
  DILI in vitro assay prediction, Xu (2008): -VE
[8]; [21]
  PHH/100uM, Proctor (2017): -VE
[8]; [22]
  PHH ATP <100uM: -VE
[9]; [22]
  hLiMTs ATP <100uM: -VE
[9]; [23]
  hLiMTs/100uM, Proctor (2017): -VE
[10]; In vitro Assay, ref Vorrink 2018
  hLiMTs ATP <20 x Cmax: -VE
[10]; PHH spheroids, ATP, 14 days, IC20 < 20 × Cmax.tot, ref Vorrink et al. 2018
  DILI in vitro assay prediction, Vorrink (2018): -VE
[11]
  Cmax: 1120 nM
[12]
  fu: 0.580
[13]; [24]
  Assigned DILI category: 1
[13]; ref Dawson 2012
  In vivo DILI: -VE
[13]; ref Gustafsson 2014
  In vivo DILI: -VE
[13]; ref O'Brien 2006
  In vivo DILI: -VE
[13]; ref Persson 2013
  In vivo DILI: -VE
[13]; ref Proctor 2017
  In vivo DILI: -VE
[13]; ref Vorrink 2018
  In vivo DILI: -VE
[13]; ref Williams 2019
  In vivo DILI: -VE
[13]; ref Xu 2008
  In vivo DILI: -VE
[14]
  THLE-Null: -VE
[15]
  Inhibition of rBsep cutoff<1& cmax u>.2: -VE
  Inhibition of rBsep cutoff<3: -VE
[16]
  hLiMTs <25x Avg Cmax ATP: -ve
  hLiMTs <25x Avg Cmax HCS: -ve
  hLiMTs <25x Avg Cmax All: -ve
  hLiMTs Cmax max All: -ve
  hLiMTs Cmax min All: -ve
  hLiMTs <10 uM All: -ve
[17]
  HepaRG <25x Avg Cmax ATP: -ve
  HepaRG <25x Avg Cmax HCS: -ve
  HepaRG <25x Avg Cmax All: -ve
  HepaRG Cmax max All: -ve
  HepaRG Cmax min All: -ve
  HepaRG <10 uM All: -ve

## CN(C)C(=O)Oc1cccc([N+](C)(C)C)c1 [neostigmine]
[1]
  Human plasma Cmax,u: 36 nM
[2]
  DILI prediction hLiMTs (HCS-MEC): -VE
[3]
  DILI prediction HepaRG spheroids (HCS-MEC): -VE
[8]; [21]
  PHH/100uM, Proctor (2017): -VE
[8]; [22]
  PHH ATP <100uM: -VE
[8]
  PHH/100xCmax, Proctor (2017): -VE
[9]; [22]
  hLiMTs ATP <100uM: -VE
[9]
  hLiMTs/100xCmax, Proctor (2017): -VE
[9]; [23]
  hLiMTs/100uM, Proctor (2017): -VE
[18]; Bayesian modeling, ref Williams et al. 2019
  Bayesian Machine Learning DILI prediction, Williams (2019): -VE
[18]; ref Williams 2019
  Bayesian Machine Learning: -VE
[11]
  Cmax: 45 nM
[12]
  fu: 0.800
[13]; [24]
  Assigned DILI category: 1
[13]; […]
  In vivo DILI: -VE
[13]; ref Proctor 2017
  In vivo DILI: -VE
[13]; ref Williams 2019
  In vivo DILI: -VE
[16]
  hLiMTs <25x Avg Cmax ATP: -ve
  hLiMTs <100x Avg Cmaxu ATP: -ve
  hLiMTs <25x Avg Cmax HCS: -ve
  hLiMTs <100x Avg Cmaxu HCS: -ve
  hLiMTs <25x Avg Cmax All: -ve
  hLiMTs Cmax max All: -ve
  hLiMTs Cmax min All: -ve
  hLiMTs <10 uM All: -ve
  hLiMTs <100x Avg Cmaxu All: -ve
[17]
  HepaRG <25x Avg Cmax ATP: -ve
  HepaRG <100x Avg Cmaxu ATP: -ve
  HepaRG <25x Avg Cmax HCS: -ve
  HepaRG <100x Avg Cmaxu HCS: -ve
  HepaRG <25x Avg Cmax All: -ve
  HepaRG Cmax max All: -ve
  HepaRG Cmax min All: -ve
  HepaRG <10 uM All: -ve
  HepaRG <100x Avg Cmaxu All: -ve

## CC(COc1ccccc1)N(CCCl)Cc1ccccc1 (stereo not drawn) [phenoxybenzamine]
[1]
  Human plasma Cmax,u: 2 nM
[2]
  DILI prediction hLiMTs (HCS-MEC): -VE
[3]
  DILI prediction HepaRG spheroids (HCS-MEC): -VE
[4]; in vivo
  DILI +VE (5-8), DILI -VE (-4): -VE
  DILI severity category (Chen et al. [2016]): No
[7]
  DILI in vitro assay prediction, Xu (2008): -VE
  Structural based (HCI): -VE
[19]
  Partition Hybrid HRM Score: +VE
  Partition Hybrid HRM Score ≥4, Aleo (2019): +VE (key: +VE: Partition Hybrid HRM Score ≥4)
  Partition Hybrid HRM Score ≥8, Aleo (2019): -VE
  Ro2 Hybrid HRM Score: +VE
  Rule of Two hybrid HRM Score ≥3, Aleo (2019): +VE (key: +VE: Rule of Two hybrid HRM Score ≥3)
  Rule of Two hybrid HRM Score ≥8, Aleo (2019): -VE
[8]
  PHH ATP <100uM: -VE
  PHH/100uM, Proctor (2017): -VE
  PHH/100xCmax, Proctor (2017): -VE
[9]
  hLiMTs ATP <100uM: -VE
  hLiMTs/100uM, Proctor (2017): -VE
  hLiMTs/100xCmax, Proctor (2017): -VE
[10]
  DILI in vitro assay prediction, Vorrink (2018): -VE
  hLiMTs ATP <20 x Cmax: -VE
[18]
  Bayesian Machine Learning: -VE
  Bayesian Machine Learning DILI prediction, Williams (2019): -VE
[11]
  Cmax: 197 nM
[12]
  fu: 0.009
[13]; in vivo
  Assigned DILI category: 1
  In vivo DILI: -VE
[16]; Homo sapiens, read-out: ATP endpoint AC50
  AC50: 26.9 µM
[16]; Homo sapiens, read-out: ATP endpoint MEC
  minimal effective concentration: 10.7 µM
[16]; Homo sapiens, read-out: HCS endpoint MEC
  minimal effective concentration: 15.6 µM
[16]
  hLiMTs <25x Avg Cmax ATP: -ve
  hLiMTs <100x Avg Cmaxu ATP: -ve
  hLiMTs <25x Avg Cmax HCS: -ve
  hLiMTs <100x Avg Cmaxu HCS: -ve
  hLiMTs <25x Avg Cmax All: -ve
  hLiMTs Cmax max All: -ve
  hLiMTs Cmax min All: -ve
  hLiMTs <10 uM All: -ve
  hLiMTs <100x Avg Cmaxu All: -ve
[17]
  HepaRG <25x Avg Cmax ATP: -ve
  HepaRG <100x Avg Cmaxu ATP: -ve
  HepaRG <25x Avg Cmax HCS: -ve
  HepaRG <100x Avg Cmaxu HCS: -ve
  HepaRG <25x Avg Cmax All: -ve
  HepaRG Cmax max All: -ve
  HepaRG Cmax min All: -ve
  HepaRG <10 uM All: -ve
  HepaRG <100x Avg Cmaxu All: -ve
[17]; read-out: ATP endpoint MEC
  minimal effective concentration: 25.3 µM
[17]; read-out: HCS endpoint MEC
  minimal effective concentration: 53.8 µM
